Experimental data published in patent US6495675B1, “Pharmaceutical composition for treating or preventing influenza, and novel capped oligonucleotide” (Chiba Institute of Technology, priority 1997, dated 2002).
Where two headings read alike, the source gives them in different places. Strand notation (5' to 3'): a small letter for the sugar, then the base; units joined by * are phosphorothioate-linked, units joined directly phosphodiester-linked; [ ] holds rarer units or linkages, { } end groups; capitals alone tell only the bases. {m7GpppGm} = cap: 7-methylguanosine 5'-5' triphosphate-linked to 2'-O-methylguanosine; {m7GpppG} = cap: 7-methylguanosine 5'-5' triphosphate-linked to guanosine; r = 2'-OH (RNA)

System: CAT protein expression in 76 cells expressing RNA polymerases (PB1, PB2, and PA) and NP protein of influenza A virus (A/PR/8/34)
Type: cell-based

Substance: m^7GpppG AAUACUC ({m7GpppG}-rArArUrArCrUrC) [G8]
- inhibition of CAT protein expression (in words) (concentration not specified): significant inhibition

Substance: m^7GpppGmAAUACUCAAACU ({m7GpppGm}-rArArUrArCrUrCrArArArCrU) [Gm13, reference compound]
- inhibition of CAT protein expression (in words) (concentration not specified): weak inhibition
- inhibition of CAT protein expression (in words) (high dose (0.3 μM)): little inhibition

Substance: m^7GpppGmAAUACUC ({m7GpppGm}-rArArUrArCrUrC) [Gm8]
- inhibition of CAT protein expression (in words) (concentration not specified): significant inhibition
